Results: ChEMBL document CHEMBL1201861, “Genomics of Drug Sensitity in Cancer screening data, Wellcome Trust Sanger Institute”

Columns and labels:
Test in all cases: cells
Type in all cases: functional, cell-based, Homo sapiens
[1] = system: COLO-741; conditions: Homo sapiens, COLO-741
Description: SANGER: Inhibition of human COLO-741 cell growth in a cell viability assay.

[2] = system: CaR-1; conditions: Homo sapiens, CaR-1;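 also: growth inhibition of human CaR-1 cancer cells, read out with a cell viability assay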
Description: SANGER: Inhibition of human CaR-1 cell growth in a cell viability assay.

[3] = system: DOK; conditions: Homo sapiens, DOK;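 also: cell viability assay read-out, values reflect inhibition of cell growth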
Description: SANGER: Inhibition of human DOK cell growth in a cell viability assay.

[4] = system: DoTc2-4510; conditions: Homo sapiens, DoTc2-4510
[5] = system: EGI-1; conditions: Homo sapiens, EGI-1;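 also: cell viability readout used to gauge growth inhibition of EGI-1 cells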
Description: SANGER: Inhibition of human EGI-1 cell growth in a cell viability assay.

[6] = system: FTC-133; conditions: Homo sapiens, FTC-133
[7] = system: HOP-92; conditions: Homo sapiens, HOP-92;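 also: cell viability readout, with IC50 reflecting inhibition of HOP-92 cell growth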
Description: SANGER: Inhibition of human HOP-92 cell growth in a cell viability assay.

[8] = system: Huh-7; conditions: Homo sapiens, Huh-7;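 also: HuH-7 cell growth inhibition, read out with a cell viability assay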
Description: SANGER: Inhibition of human HuH-7 cell growth in a cell viability assay.

[9] = system: KP-N-YN; conditions: Homo sapiens, KP-N-YN;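 also: growth inhibition of KP-N-YN cells, read out with a cell viability assay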
Description: SANGER: Inhibition of human KP-N-YN cell growth in a cell viability assay.

[10] = system: KU-19-19; conditions: Homo sapiens, KU-19-19
Description: SANGER: Inhibition of human KU-19-19 cell growth in a cell viability assay.

[11] = system: KYSE-270; conditions: Homo sapiens, KYSE-270;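 also: cell growth inhibition measured with a viability assay in the human KYSE-270 line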
Description: SANGER: Inhibition of human KYSE-270 cell growth in a cell viability assay.

[12] = system: LCLC-97TM1; conditions: Homo sapiens, LCLC-97TM1;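 also: cell viability assay measuring growth inhibition of human LCLC-97TM1 cells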
Description: SANGER: Inhibition of human LCLC-97TM1 cell growth in a cell viability assay.

[13] = system: MDA-MB-231; conditions: Homo sapiens, MDA-MB-231
Description: SANGER: Inhibition of human MDA-MB-231 cell growth in a cell viability assay.

[14] = system: MDA-MB-415; conditions: Homo sapiens, MDA-MB-415
[15] = system: MFE-280; conditions: Homo sapiens, MFE-280;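 also: growth inhibition of MFE-280 cells, determined with a cell viability readout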
Description: SANGER: Inhibition of human MFE-280 cell growth in a cell viability assay.

[16] = system: MOLT-13; conditions: Homo sapiens, MOLT-13;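 also: IC50 for suppression of MOLT-13 cell growth, read out with a cell viability assay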
Description: SANGER: Inhibition of human MOLT-13 cell growth in a cell viability assay.

[17] = system: NCI-H1573; conditions: Homo sapiens, NCI-H1573;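 also: growth inhibition of NCI-H1573 cells, read out with a cell viability assay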
Description: SANGER: Inhibition of human NCI-H1573 cell growth in a cell viability assay.

[18] = system: NCI-H1623; conditions: Homo sapiens, NCI-H1623;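 also: cell viability assay used as the read-out for growth inhibition of NCI-H1623 cells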
Description: SANGER: Inhibition of human NCI-H1623 cell growth in a cell viability assay.

[19] = system: NCI-H1755; conditions: Homo sapiens, NCI-H1755;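 also: cell viability readout used to measure growth inhibition of NCI-H1755 cells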
Description: SANGER: Inhibition of human NCI-H1755 cell growth in a cell viability assay.

[20] = system: NCI-H1993; conditions: Homo sapiens, NCI-H1993;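 also: growth inhibition of the cancer cell line, assessed with a cell viability assay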
Description: SANGER: Inhibition of human NCI-H1993 cell growth in a cell viability assay.

[21] = system: NCI-H2030; conditions: Homo sapiens, NCI-H2030;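 also: growth inhibition of human NCI-H2030 cells, read out by a cell viability assay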
Description: SANGER: Inhibition of human NCI-H2030 cell growth in a cell viability assay.

[22] = system: NCI-H441; conditions: Homo sapiens, NCI-H441;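 also: growth inhibition of NCI-H441 cells, read out with a cell viability assay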
Description: SANGER: Inhibition of human NCI-H441 cell growth in a cell viability assay.

[23] = system: OAW-42; conditions: Homo sapiens, OAW-42;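 also: growth inhibition of OAW-42 cells, read out with a cell viability assay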
Description: SANGER: Inhibition of human OAW-42 cell growth in a cell viability assay.

[24] = system: OE33; conditions: Homo sapiens, OE33;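 also: growth inhibition of human OE33 cells, measured by a cell viability assay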
Description: SANGER: Inhibition of human OE33 cell growth in a cell viability assay.

[25] = system: S-117; conditions: Homo sapiens, S-117
Description: SANGER: Inhibition of human S-117 cell growth in a cell viability assay.

[26] = system: SK-MES-1; conditions: Homo sapiens, SK-MES-1;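 also: growth inhibition of human SK-MES-1 cells, read out with a cell viability assay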
Description: SANGER: Inhibition of human SK-MES-1 cell growth in a cell viability assay.

[27] = system: SW13; conditions: Homo sapiens, SW13;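 also: IC50 is inhibition of SW13 cell growth, read out with a cell viability assay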
Description: SANGER: Inhibition of human SW13 cell growth in a cell viability assay.

[28] = system: SAOS-2; conditions: Homo sapiens, SAOS-2;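 also: growth inhibition of human Saos-2 cells determined by a cell viability assay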
Description: SANGER: Inhibition of human Saos-2 cell growth in a cell viability assay.

[29] = system: 8305C; conditions: Homo sapiens, 8305C
Description: SANGER: Inhibition of human 8305C cell growth in a cell viability assay.

[30] = system: A2058; conditions: Homo sapiens, A2058;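 also: reduction of A2058 cell growth, read out with a viability assay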
Description: SANGER: Inhibition of human A2058 cell growth in a cell viability assay.

[31] = system: BFTC-905; conditions: Homo sapiens, BFTC-905
Description: SANGER: Inhibition of human BFTC-905 cell growth in a cell viability assay.

[32] = system: BPH-1; conditions: Homo sapiens, BPH-1;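 also: cell viability assay measuring growth inhibition of human BPH-1 cells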
Description: SANGER: Inhibition of human BPH-1 cell growth in a cell viability assay.

[33] = system: BT-20; conditions: Homo sapiens, BT-20;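 also: cell viability assay measuring suppression of growth in human BT-20 cells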
Description: SANGER: Inhibition of human BT-20 cell growth in a cell viability assay.

[34] = system: TYK-nu; conditions: Homo sapiens, TYK-nu;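 also: growth inhibition of human TYK-nu cells, read out by a cell viability assay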
Description: SANGER: Inhibition of human TYK-nu cell growth in a cell viability assay.

[35] = system: CFPAC-1; conditions: Homo sapiens, CFPAC-1;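 also: cell viability readout used to gauge suppression of CFPAC-1 cell proliferation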
Description: SANGER: Inhibition of human CFPAC-1 cell growth in a cell viability assay.

[36] = system: COLO-679; conditions: Homo sapiens, COLO-679
Description: SANGER: Inhibition of human COLO-679 cell growth in a cell viability assay.

Row | Structure (SMILES) | IC50 [1] [nM] | IC50 [2] [nM] | IC50 [3] [nM] | IC50 [4] [nM] | IC50 [5] [nM] | IC50 [6] [nM] | IC50 [7] [nM] | IC50 [8] [nM] | IC50 [9] [nM] | IC50 [10] [nM] | IC50 [11] [nM] | IC50 [12] [nM] | IC50 [13] [nM] | IC50 [14] [nM] | IC50 [15] [nM] | IC50 [16] [nM] | IC50 [17] [nM] | IC50 [18] [nM] | IC50 [19] [nM] | IC50 [20] [nM] | also measured
1 | Cc1cn(-c2cc(NC(=O)c3ccc(C)c(Nc4nccc(-c5cccnc5)n4)c3)cc(C(F)(F)F)c2)cn1 [NILOTINIB] | > 2000 | > 2000 | > 2000 | > 2000 | > 2000 | > 2000 | > 2000 | > 2000 | > 2000 | > 2000 | > 2000 | > 2000 | > 2000 | > 2000 | > 2000 | > 2000 | > 2000 | > 2000 | > 2000 | > 2000 | IC50 [21]: > 2000 nM; IC50 [22]: > 2000 nM; IC50 [23]: > 2000 nM; IC50 [24]: > 2000 nM; IC50 [25]: > 2000 nM; IC50 [26]: > 2000 nM; IC50 [27]: > 2000 nM; IC50 [28]: > 2000 nM; IC50 [29]: > 2000 nM; IC50 [30]: > 2000 nM; IC50 [31]: > 2000 nM; IC50 [32]: > 2000 nM; IC50 [33]: > 2000 nM; IC50 [34]: > 2000 nM; IC50 [35]: > 2000 nM; IC50 [36]: > 2000 nM
2 | CCN(CC)CCCCNc1ncc2cc(-c3cc(OC)cc(OC)c3)c(NC(=O)NC(C)(C)C)nc2n1 [PD-173074] | > 2000 | > 2000 | > 2000 | > 2000 | > 2000 | > 2000 | > 2000 | 1240 | > 2000 | > 2000 | > 2000 | > 2000 | > 2000 | > 2000 | 859 | > 2000 | > 2000 | > 2000 | > 2000 | > 2000 | IC50 [21]: > 2000 nM; IC50 [22]: > 2000 nM; IC50 [23]: > 2000 nM; IC50 [24]: > 2000 nM; IC50 [25]: > 2000 nM; IC50 [26]: > 2000 nM; IC50 [27]: > 2000 nM; IC50 [28]: > 2000 nM; IC50 [29]: > 2000 nM; IC50 [30]: > 2000 nM; IC50 [31]: > 2000 nM; IC50 [32]: > 2000 nM; IC50 [33]: > 2000 nM; IC50 [34]: > 2000 nM; IC50 [35]: > 2000 nM; IC50 [36]: > 2000 nM
3 | COc1cc2c(Nc3ccc(NC(=O)c4ccccc4)cc3)ncnc2cc1OCCCN1CCOCC1 | > 4000 | > 4000 | > 4000 | > 4000 | > 4000 | > 4000 | > 4000 | > 4000 | > 4000 | > 4000 | > 4000 | 2180 | > 4000 | > 4000 | 3410 | 1570 | > 4000 | > 4000 | > 4000 | > 4000 | IC50 [21]: > 4000 nM; IC50 [22]: > 4000 nM; IC50 [23]: > 4000 nM; IC50 [24]: > 4000 nM; IC50 [25]: > 4000 nM; IC50 [26]: > 4000 nM; IC50 [27]: > 4000 nM; IC50 [28]: > 4000 nM; IC50 [29]: > 4000 nM; IC50 [30]: > 4000 nM; IC50 [31]: 2420 nM; IC50 [32]: > 4000 nM; IC50 [33]: > 4000 nM; IC50 [34]: > 4000 nM; IC50 [35]: > 4000 nM; IC50 [36]: > 4000 nM
